# System: ceftazidime-resistant E. coli E24
# Experiment: E. coli-induced mouse bacteremia
# [1] = ceftazidime 5 mg/kg i.p., 8 h of drug treatment
smiles,measurement,setting,value
CC(C)(O/N=C(\C(=O)N[C@@H]1C(=O)N2C(C(=O)[O-])=C(C[n+]3ccccc3)CS[C@H]12)c1csc(N)n1)C(=O)O [Ceftazidime],loss of mice (mortality),ceftazidime 5 mg/kg i.p. 2 h after i.p. E. coli E24,85.7%
same,bacterial load in the blood,[1],approximately 1 × 10^9 CFU/ml
same,"bacterial load in the lung, liver, spleen, and kidney tissues",[1],approximately 1 × 10^9 CFU/g

# — paper PMC11176561 (Computational and Structural Biotechnology Journal, 2024)
